From patent publication US8492559B2, “Substituted indole compounds” (Gruenenthal GmbH, priority 2009, dated 2013) come the findings set out here.

For orientation: inhibition means the percentage by which the read-out fell short of the control.

This test concerns the target T1, human B1R receptor (hB1R) (Homo sapiens, UniProt P46663).
T1 construct: expressed in transfected cells; host or cells: CHO K1 cells
T1 sequence (P46663 1-353): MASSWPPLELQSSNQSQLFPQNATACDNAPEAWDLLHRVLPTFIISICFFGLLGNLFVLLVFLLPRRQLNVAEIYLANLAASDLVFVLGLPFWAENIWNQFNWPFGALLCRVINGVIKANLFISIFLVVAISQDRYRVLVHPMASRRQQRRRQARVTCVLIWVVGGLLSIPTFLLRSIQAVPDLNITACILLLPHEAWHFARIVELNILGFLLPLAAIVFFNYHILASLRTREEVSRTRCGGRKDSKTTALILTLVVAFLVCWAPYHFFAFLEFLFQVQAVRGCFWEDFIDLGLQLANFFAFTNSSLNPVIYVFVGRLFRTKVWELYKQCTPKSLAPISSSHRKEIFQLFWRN
The test can be described thus: Functional investigation on the bradykinin 1 receptor (B1R), FLIPR Ca2+ assay, hB1R cells. Conditions: CHO-K1, 10 μM test substance; CHO K1 cells with human B1R; agonist Lys-Des-Arg9 bradykinin; % of maximum achievable inhibition; read-out: B1R antagonism, human [10 μM] % inhibition. It is filed as cell-based. On the procedure: The agonistic or antagonistic action of substances can be quantified on the bradykinin 1 receptor (B1R) of the human and rat species with ectopically expressing cell lines (CHO K1 cells) and with the aid of a Ca^2+-sensitive dye (Fluo-4) using a fluorescent imaging plate reader (FLIPR). The indication in % activation is based on the Ca^2+ signal after addition of Lys-Des-Arg^9 bradykinin (0.5 nM) or Des-Arg^9 bradykinin (100 nM). Antagonists lead to a suppression of the Ca^2+ influx following administration of the agonist. The % inhibition in comparison with the maximum achievable inhibition is indicated.
1. Functional Investigation on the Bradykinin 1 Receptor (B1R)
The agonistic or antagonistic action of substances can be determined on the bradykinin 1 receptor (B1R) of the human and rat species with the following assay. According to this assay, the Ca^2+ inflow through the channel is quantified with the aid of a Ca^2+-sensitive dye (Fluo-4 type, Molecular Probes Europe BV, Leiden, Netherlands) in a fluorescent imaging plate reader (FLIPR, Molecular Devices, Sunnyvale, USA).
Chinese hamster ovary cells (CHO K1 cells) which are stably transfected with the human B1R gene (hB1R cells) or the B1R gene of the rat (rB1R cells) are used. For functional investigations these cells are plated-out onto black 96-well plates with a clear base (BD Biosciences, Heidelberg, Germany or Greiner, Frickenhausen, Germany) in a density of 20,000-35,000 cells/well. Overnight the cells are incubated at 37° C. and 5% CO2 in culture medium (hB1R cells: Ham's Nutrient Mixture F12, Gibco Invitrogen GmbH, Karlsruhe, Germany or DMEM, Sigma-Aldrich, Taufkirchen, Germany; rB1R cells: D-MEM/F12, Gibco Invitrogen, Karlsruhe, Germany) with 10 vol. % FBS (foetal bovine serum, Gibco Invitrogen GmbH, Karlsruhe, Germany or PAN Biotech GmbH, Aidenbach, Germany).
On the following day the cells are loaded with 2.13 μM Fluo-4 (Molecular Probes Europe BV, Leiden, Netherlands) in HBSS buffer (Hank's buffered saline solution, Gibco Invitrogen GmbH, Karlsruhe, Germany) with 2.5 mM probenecid (Sigma-Aldrich, Taufkirchen, Germany) and 10 mM HEPES (Sigma-Aldrich, Taufkirchen, Germany) for 60 min at 37° C. The plates are subsequently washed twice with HBSS buffer, and HBSS buffer which additionally contains 0.1% BSA (bovine serum albumin; Sigma-Aldrich, Taufkirchen, Germany), 5.6 mM glucose and 0.05% gelatine (Merck KGaA, Darmstadt, Germany) is added. After a further incubation of 20 minutes at room temperature, the plates are inserted into the FLIPR for Ca^2+ measurement.
Alternatively they are washed with buffer A (15 mM HEPES, 80 mM NaCl, 5 mM KCl, 1.2 mM CaCl2, 0.7 mM MgSO4, 2 g/l glucose, 2.5 mM probenecid) and loaded with buffer A with added 2.5 μM Fluo-4 and 0.025% Pluronic F127 (Sigma-Aldrich, Taufkirchen, Germany). The cells are then washed twice with buffer A and incubated for 30 minutes with buffer A, which additionally contains 0.05% BSA and 0.05% gelatine, at room temperature and then used for Ca^2+ measurement in the FLIPR. The Ca^2+-dependent fluorescence is measured here before and after addition of substances (λex=488 nm, λem=540 nm). The quantification is performed by measuring the highest fluorescence intensity (FC, fluorescence counts) over time.
The FLIPR protocol comprises two additions of substance. Test substances (10 μM) are first pipetted onto the cells and the Ca^2+ inflow is compared with the control (hB1R: Lys-Des-Arg^9 bradykinin>=50 nM; rB1R: Des-Arg^9 bradykinin 10 μM). The value in % activation based on the Ca^2+ signal after addition of Lys-Des-Arg^9 bradykinin (>=50 nM) or Des-Arg^9 bradykinin (10 μM) is obtained therefrom. After incubation for 10-20 minutes, Lys-Des-Arg^9 bradykinin (hB1R) or Des-Arg^9 bradykinin (rB1R) is applied in the EC80 concentration and the inflow of Ca^2+ is likewise determined.
Antagonists lead to a suppression of the Ca^2+ inflow. The % inhibition in comparison with the maximum achievable inhibition is calculated. […]

On to `O=C(Cn1ccc2ccc(N3Cc4cccc(Cl)c4C3=O)cc21)N1CCC2(CCN(c3ccncc3)CC2)C1` [Compound G-12, 7-Chloro-2-(1-(2-oxo-2-(8-(pyridin-4-yl)-2,8-diazaspiro[4.5]decan-2-yl)ethyl)-1H-indol-6-yl)isoindolin-1-one], for which the inhibition at 10 µM was 98%. The same measure for `Cc1cc(S(=O)(=O)Nc2ccc3ccn(CC(=O)N4CCN(CC5CCN(C)CC5)CC4)c3c2)c(C)cc1Cl` [G_CC-8, 4-Chloro-2,5-dimethyl-N-[1-[2-[4-[(1-methyl-piperidin-4-yl)-methyl]-piperazin-1-yl]-2-oxo-ethyl]-1H-indol-6-yl]-benzenesulfonic acid amide]: 26%.
